Active and inactive are the calls of the source. The calls are words filed in the database; no cut-off is given here.
Tests used:
Format in all cases: functional
Oxoeicosanoid receptor 1 [1] = target: T1, Oxoeicosanoid receptor 1 (Homo sapiens, UniProt Q8TDS5); test: Antagonist activity at OXE receptor in human neutrophils assessed as 5-oxo-ETE-induced Ca2+ mobilization incubated for 2 mins prior to 5-oxo-ETE addition measured at 30 uM after 1 min by spectrofluorimetric analysis
Oxoeicosanoid receptor 1 [2] = target: T1, Oxoeicosanoid receptor 1; test: Antagonist activity at OXE receptor in human neutrophils assessed as 5-oxo-ETE-induced Ca2+ mobilization incubated for 2 mins prior to 5-oxo-ETE addition measured after 1 min by spectrofluorimetric analysis
Oxoeicosanoid receptor 1 [3] = target: T1, Oxoeicosanoid receptor 1; test: Agonist activity at OXE receptor in human neutrophils assessed as 5-oxo-ETE-induced Ca2+ mobilization incubated for 2 mins prior to 5-oxo-ETE addition measured after 1 min by spectrofluorimetric analysis
Oxoeicosanoid receptor 1 [4] = target: T1, Oxoeicosanoid receptor 1; test: Antagonist activity at OXE receptor in human neutrophils assessed as induction of Ca2+ mobilization at 30 uM after 2 mins by spectrofluorimetric analysis
Oxoeicosanoid receptor 1 [5] = target: T1, Oxoeicosanoid receptor 1; test: Antagonist activity at OXE receptor in human neutrophils assessed as 5-oxo-ETE-induced Ca2+ mobilization incubated for 2 mins prior to 5-oxo-ETE addition measured at 1 uM after 1 min by spectrofluorimetric analysis
Oxoeicosanoid receptor 1 [6] = target: T1, Oxoeicosanoid receptor 1; test: Antagonist activity at OXE receptor in human neutrophils assessed as LTB4-induced Ca2+ mobilization incubated for 2 mins prior to 5-oxo-ETE addition measured after 1 min by spectrofluorimetric analysis

T1 sequence (Q8TDS5 whole entry): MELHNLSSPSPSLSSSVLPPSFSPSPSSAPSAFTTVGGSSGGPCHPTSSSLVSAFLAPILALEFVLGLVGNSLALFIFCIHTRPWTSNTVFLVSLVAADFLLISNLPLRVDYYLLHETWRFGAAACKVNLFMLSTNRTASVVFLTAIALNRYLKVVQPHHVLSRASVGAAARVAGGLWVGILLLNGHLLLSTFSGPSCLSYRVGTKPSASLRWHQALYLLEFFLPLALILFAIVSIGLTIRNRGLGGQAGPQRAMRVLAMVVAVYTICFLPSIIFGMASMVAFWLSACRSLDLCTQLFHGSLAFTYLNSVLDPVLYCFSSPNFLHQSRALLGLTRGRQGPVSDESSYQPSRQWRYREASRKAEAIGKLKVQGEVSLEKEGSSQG

Row | Structure (SMILES) | IC50 (Oxoeicosanoid receptor 1 [2]) [µM] | Activity (Oxoeicosanoid receptor 1 [3]) | also measured
1 | O=C(O)CCCC(=O)n1ccc2ccccc21 | > 30 | inactive | Activity (Oxoeicosanoid receptor 1 [1]): inactive; Activity (Oxoeicosanoid receptor 1 [4]): inactive
2 | CCCCCCc1cccc2ccn(C(=O)CCCC(=O)O)c12 | 11.8 | – | –
3 | O=C(O)CCCC(=O)/C=C/c1cccc2ccccc12 | – | inactive | –
4 | CCCCCCc1cn(C(=O)CCCC(=O)O)c2ccccc12 | 20.7 | – | –
5 | O=C(O)CCCc1cc2ccccc2o1 | – | inactive | –
6 | CCCCCCc1cc2ccccc2n1C(=O)CCCC(=O)O | 1.55 | – | Activity (Oxoeicosanoid receptor 1 [5]): Active; Activity (Oxoeicosanoid receptor 1 [6]): inactive
7 | CCCCCCc1ccc2c(ccn2C(=O)CCCC(=O)O)c1 | 17.7 | – | –
8 | CCCCCCc1ccc2ccn(C(=O)CCCC(=O)O)c2c1 | 18 | – | –
9 | O=C(O)CCCC(=O)/C=C/c1ccccc1 | – | inactive | –

— ChEMBL document CHEMBL2331351, “5-Oxo-ETE receptor antagonists” (J Med Chem, 2013)
